Data published in US20230398334A1, “COATED BALLOON CATHETER FOR TREATING ARTERIOVENOUS FISTULA AND METHODS OF USING SAME” (Alucent Biomedical, Inc., priority 2022, published 2023).

System: arteriovenous fistula (AVF)
Assay: Treatment of an AVF with the active agent (NVS treatment)
Type: in vivo

## NCCOCCOCCNc1ccc2c3c(cccc13)C(=O)N(CCOCCOCCN1C(=O)c3cccc4c(NCCOCCOCCN)ccc(c34)C1=O)C2=O [Compound of Formula (I), 2,2′-((ethane-1,2-diylbis(oxy))bis(ethane-2,1-diyl))bis(6-((2-(2-(2-aminoethoxy)ethoxy)ethyl)amino)-1H-benzo[de]isoquinoline-1,3(2H)-dione)]
  AVF open lumen area: significant increase
  area of neointimal hyperplasia: without significantly affecting
